Test results published in the NIST ThermoML archive (doi:10.1016/j.jct.2008.04.008).
Values joined by “and” are separate entries in the source; they are usually repeats but may differ in a detail not shown here. Equal entries are not always repeated.

Key:
[1] = Liquid
[2] = mn = molality of the nth substance listed, in mol/kg; conditions: Liquid; for speed of sound: Pulse-echo method

CO [methanol]
[1]
Conditions	mass density
283.15 K	800.575 kg/m3 [middle of 4 runs]
288.15 K	795.888 kg/m3 [middle of 4 runs]
293.15 K	791.194 kg/m3 and 791.243 kg/m3 and 791.184 kg/m3
298.15 K	786.534 kg/m3 and 786.475 kg/m3 and 786.485 kg/m3
303.15 K	781.758 kg/m3 [middle of 4 runs]
308.15 K	777.058 kg/m3 and 776.997 kg/m3 and 777.007 kg/m3
313.15 K	772.28 kg/m3 and 772.219 kg/m3 and 772.229 kg/m3

Conditions	speed of sound [m/s]
[1], 298.15 K, 101.33 kPa, Pulse-echo method	1102.4

CO [methanol] + [Br-].[Na+]
[2], m2 = 0
Conditions	mass density [kg/m3]
283.15 K	800.625
288.15 K	795.934
293.15 K	791.243
298.15 K	786.534
303.15 K	781.808
308.15 K	777.058
313.15 K	772.28

CO [methanol] + [Br-].c1ccc([P+](c2ccccc2)(c2ccccc2)c2ccccc2)cc1
[2], m2 = 0
Conditions	mass density [kg/m3]
283.15 K	800.567
288.15 K	795.88
293.15 K	791.184
298.15 K	786.475
303.15 K	781.748
308.15 K	776.997
313.15 K	772.219

CO [methanol] + [Na+].[O-][Cl+3]([O-])([O-])[O-]
[2], m2 = 0
Conditions	mass density [kg/m3]
283.15 K	800.568
288.15 K	795.879
293.15 K	791.184
298.15 K	786.475
303.15 K	781.746
308.15 K	776.997
313.15 K	772.219

CO [methanol] + [Na+].c1ccc([B-](c2ccccc2)(c2ccccc2)c2ccccc2)cc1
[2], m2 = 0
Conditions	mass density [kg/m3]
283.15 K	800.575
288.15 K	795.888
293.15 K	791.194
298.15 K	786.485
303.15 K	781.758
308.15 K	777.007
313.15 K	772.229

[Br-].[Na+] [sodium bromide] + CO
[2]
Conditions	mass density, 283.15 K [kg/m3]	mass density, 288.15 K [kg/m3]	mass density, 293.15 K [kg/m3]	mass density, 298.15 K [kg/m3]	mass density, 303.15 K [kg/m3]	mass density, 308.15 K [kg/m3]	mass density, 313.15 K [kg/m3]	speed of sound, 298.15 K [m/s]
m1 = 0.06477	805.613	800.933	796.252	791.558	786.848	782.114	777.354	1106.1
m1 = 0.08313	807.039	802.363	797.683	792.99	788.28	783.548	778.794	1107.1
m1 = 0.1039	808.613	803.939	799.259	794.566	789.865	785.138	780.385	1107.7
m1 = 0.1241	810.154	805.482	800.807	796.119	791.41	–	–	1108.7
m1 = 0.1439	811.667	806.995	802.323	797.64	792.938	788.218	783.471	1109.1
m1 = 0.1639	813.155	808.489	803.818	799.135	794.436	789.716	784.971	–
m1 = 0.2071	816.441	811.772	807.109	802.43	797.736	793.019	788.281	1111.8
m1 = 0.2491	819.583	814.916	810.253	805.577	800.887	796.174	791.44	1113.2
m1 = 0.2915	822.759	818.104	813.441	808.767	804.078	799.369	794.64	1114.9
m1 = 0.3318	825.782	821.118	816.459	811.79	807.103	802.396	797.671	1116.1
m1 = 0.3735	828.905	824.245	819.585	814.919	810.236	805.533	800.808	1117.6
m1 = 0.4167	832.098	827.443	822.783	818.116	813.434	808.735	804.019	1119.2
